Test results reported in patent US20040093169A1, “Method of designing molecular structure of enzyme inhibitor” (TOYO SUISAN KAISHA, LTD., priority 2000, published 2004).

Assays:
[1] = molecular target: HIV reverse transcriptase (Human immunodeficiency virus type 1 group M subtype B, UniProt P03366); test: Inhibitory activity on HIV reverse transcriptase; format: biochemical; settings: compared with inhibitory activity on rat pol. β
Experimental: The confirmation of the inhibitory activity of nervonic acid on HIV reverse transcriptase was carried out.
Specifically, the inhibitory activity of nervonic acid on HIV reverse transcriptase was measured according to the method described in reference 8 listed below.

rat pol. β = rat pol. β (Rattus norvegicus, UniProt P06766); test: Inhibitory activity on rat pol. β ([3H]-dTTP incorporation, poly(dA)/oligo(dT)12-18); format: biochemical; settings: compared among fatty acids
Experimental: The activity of rat pol. β was measured according to the method described in reference 3 listed below, by using poly(dA)/oligo(dT)12-18 (template DNA) and [^3H]-dTTP (nucleotide) as substrates and measuring radiation of [^3H]-dTTP incorporated in the presence of nervonic acid of different concentrations.
FIG. 5 is a graph showing an inhibition curve. In FIG. 5, the vertical axis represents the activity of rat pol. β and the horizontal axis represents the concentration of nervonic acid.

DNA polymerase = settings: reported by Ogawa et al., Jpn. J. Cancer Res. 89, 1154-1159, 1998; cited from earlier work

SMILES	inhibitory activity on HIV reverse transcriptase (inhibition curve, FIG. 15) [1]	inhibition of rat pol. β (rat pol. β)	inhibitor on DNA polymerase (DNA polymerase)
CCCCCCCC/C=C\CCCCCCCCCCCCCC(=O)O [nervonic acid, cis-15-tetracosenoic acid]	substantially equal to the inhibitory activity of nervonic acid on rat pol. β	one of the fatty acids which most strongly inhibit rat pol. β	–
C[C@H](CCC(=O)O)[C@H]1CC[C@H]2[C@@H]3CC[C@@H]4C[C@H](O)CC[C@]4(C)[C@H]3CC[C@]12C [lithocholic acid, 3-α-hydroxy-5β-cholanoic acid]	–	–	known as inhibitors on DNA polymerase
